Measurements from patent US11787780B2 (CORCEPT THERAPEUTICS INCORPORATED, priority 2020, dated 2023).

The compounds below were run on induction of TAT by dexamethasone in HepG2 cells (assay: Hep G2 TAT assay (inhibition of dexamethasone-induced TAT)). Settings: challenge of 100 nM dexamethasone, IC50 converted to Ki by Cheng and Prusoff equation.
Format: cell-based, human
Protocol: Glucocorticoid mediated activation of TAT occurs by transactivation of glucocorticoid response elements in the TAT promoter by glucocorticoid receptor-agonist complex. The following protocol describes an assay for measuring induction of TAT by dexamethasone in HepG2 cells (a human liver hepatocellular carcinoma cell line; ECACC, UK).
TAT activity was measured as outlined in the literature by A. Ah et al., J. Med. Chem., 2004, 47, 2441-2452.
HepG2 cells were cultured using MEME media supplemented with 10% (v/v) foetal bovine serum; 2 mM L-glutamine and 1% (v/v) NEAA at 37° C., 5%/95% (v/v) CO2/air. The HepG2 cells were counted and adjusted to yield a density of 0.125×10^6 cells/ml in RPMI 1640 without phenol red, 10% (v/v) charcoal stripped FBS, 2 mM L-glutamine and seeded at 25,000 cells/well in 200 μl into 96 well, sterile, tissue culture micro titre plates, and incubated at 37° C., 5% CO2 for 24 hours
Growth media was removed and replaced with assay media {RPMI 1640 without phenol red, 2 mM L-glutamine+10 μM forskolin}. Test compounds were screened against a challenge of 100 nM dexamethasone. Compounds were serially half log diluted in 100% (v/v) dimethylsulphoxide from a 10 mM stock.
Test compounds were pre-incubated with cells in micro-titre plates for 30 minutes at 37° C., 5/95 (v/v) CO2/air, before the addition of 100 nM dexamethasone and then subsequently for 20 hours to allow optimal TAT induction.
HepG2 cells were then lysed with 30 μl of cell lysis buffer containing a protease inhibitor cocktail for 15 minutes at 4° C. […] After 2 hours incubation at 37° C. the reaction was terminated by the addition of 15 μl of 10M aqueous potassium hydroxide solution, and the plates incubated for a further 30 minutes at 37° C. The TAT activity product was measured by absorbance at λ 340 nm.
[compound] and fitting the data to a 4 parameter logistic equation. IC50 values were converted to Ki (equilibrium dissociation constant) using the Cheng and Prusoff equation, assuming the antagonists were competitive inhibitors with respect to dexamethasone.
`Cn1ncc(S(=O)(=O)N2CCC(Cc3ccccc3)(c3cc4cnn(-c5ccc(=O)n(C)c5)c4cc3Cl)C2)n1` (stereo not drawn) [Example 277, 5-(5-(3-benzyl-1-((2-methyl-2H-1,2,3-triazol-4-yl)sulfonyl)pyrrolidin-3-yl)-6-chloro-1H-indazol-1-yl)-1-methylpyridin-2(1H)-one] was tested, and the Ki was 54 nM.
`COc1cc(OCCCC(=O)N2CCC(Cc3ccccc3)(c3cc4cnn(-c5ccc(F)cc5)c4cc3C)C2)ccc1CO` (stereo not drawn) [Example 199, 1-(3-benzyl-3-(1-(4-fluorophenyl)-6-methyl-1H-indazol-5-yl)pyrrolidin-1-yl)-4-(4-(hydroxymethyl)-3-methoxyphenoxy)butan-1-one] gave a Ki of 33 nM.
`Cc1cc2c(cnn2-c2ccc(=O)n(C(C)C)c2)cc1C1(Cc2ccccc2)CCN(S(=O)(=O)c2cnn(C)n2)C1` (stereo not drawn) [Example 269, 5-(5-(3-benzyl-1-((2-methyl-2H-1,2,3-triazol-4-yl)sulfonyl)pyrrolidin-3-yl)-6-methyl-1H-indazol-1-yl)-1-isopropylpyridin-2(1H)-one] was tested, and the Ki was 1300 nM.
`Cc1cc2c(cnn2-c2ccc(F)cc2)cc1C1(Cc2ccc3c(c2)nnn3C)CCN(S(C)(=O)=O)C1` (stereo not drawn) [Example 183] gave a Ki of 182 nM.
Compound `Cc1cc2c(cnn2-c2cccc(C(=O)NC3CCOC3)c2)cc1C1=CCN(S(C)(=O)=O)CC1` (stereo not drawn) [Example 146] has a Ki of 942 nM.
In the case of `Cc1cc2c(cnn2-c2ccc(=O)n(C)c2)cc1C1(Cc2ccccc2)CCN(S(=O)(=O)c2cn(C)nc2C)C1` (stereo not drawn) [Example 282, 5-(5-(3-benzyl-1-((1,3-dimethyl-1H-pyrazol-4-yl)sulfonyl)pyrrolidin-3-yl)-6-methyl-1H-indazol-1-yl)-1-methylpyridin-2(1H)-one], the Ki is reported as 120 nM.
Compound `CCCn1cc(S(=O)(=O)N2CCN(c3cc4cnn(-c5ccc(F)cc5)c4cc3C)[C@@H](C)C2)cn1` [Example 87] has a Ki of 42 nM.
Compound `Cc1cc2c(cnn2-c2ccc(F)cc2)cc1C1(Cc2ccccc2)CCN(C(=O)c2cnn(C)c2)C1` (stereo not drawn) [Example 19, (3-benzyl-3-(1-(4-fluorophenyl)-6-methyl-1H-indazol-5-yl)pyrrolidin-1-yl)(1-methyl-1H-pyrazol-4-yl)methanone] has a Ki of 142 nM.
`Cc1cc2c(cnn2-c2ccc(F)cc2)cc1C1(Cc2ccccc2)CCN(C(=O)c2ccsc2)C1` (stereo not drawn) [Example 203, (3-benzyl-3-(1-(4-fluorophenyl)-6-methyl-1H-indazol-5-yl)pyrrolidin-1-yl)(thiophen-3-yl)methanone] was tested, and the Ki was 21 nM.
`Cn1cc(S(=O)(=O)N2CCC(Cc3ccccc3)(c3ccc4c(cnn4-c4ccc(F)cc4)c3)C2)cn1` (stereo not drawn) [Example 158] showed a Ki of 161 nM.
In the case of `Cn1ncc(S(=O)(=O)N2CCC(Cc3ccccc3)(c3cc4cnn(-c5ccc(F)cc5)c4cc3C#N)C2)n1` (stereo not drawn) [Example 334, 5-(3-benzyl-1-((2-methyl-2H-1,2,3-triazol-4-yl)sulfonyl)pyrrolidin-3-yl)-1-(4-fluorophenyl)-1H-indazole-6-carbonitrile], the Ki is reported as 52 nM.
Work on `CCCn1cc(S(=O)(=O)N2C[C@H](C)N(c3cc4cnn(-c5ccc(F)cc5)c4cc3C)C[C@@H]2C)cn1` [Example 81] yielded a Ki of 58 nM.
`CCCn1cc(S(=O)(=O)N2CCC(c3cc4cnn(-c5ccc(F)cc5)c4cc3C)C(C)C2)cn1` (stereo not drawn) [Example 26, 1-(4-fluorophenyl)-6-methyl-5-(3-methyl-1-((1-propyl-1H-pyrazol-4-yl)sulfonyl)piperidin-4-yl)-1H-indazole] was tested, and the Ki was 50 nM.
Compound `CCn1cc(-n2ncc3cc(C4(Cc5ccccc5)CCN(S(=O)(=O)c5cnn(C)n5)C4)c(C)cc32)ccc1=O` (stereo not drawn) [Example 268, 5-(5-(3-benzyl-1-((2-methyl-2H-1,2,3-triazol-4-yl)sulfonyl)pyrrolidin-3-yl)-6-methyl-1H-indazol-1-yl)-1-ethylpyridin-2(1H)-one] has a Ki of 160 nM.
`CCCn1cc(S(=O)(=O)N2CCC3(c4cc5cnn(-c6ccc(F)cc6)c5cc4C)C(C2)C3(F)F)cn1` (stereo not drawn) [Example 27, 5-(7,7-difluoro-3-((1-propyl-1H-pyrazol-4-yl)sulfonyl)-3-azabicyclo[4.1.0]heptan-6-yl)-1-(4-fluorophenyl)-6-methyl-1H-indazole] gave a Ki of 759 nM.
